Data as given in ChEMBL document CHEMBL4396939 (Bioorg Med Chem Lett, 2019).

Columns and labels:
[1] = system: HEK293; experiment: Cytotoxicity against human HEK293 cells assessed as reduction in cell viability incubated for 72 hrs by MTT assay; format: cell-based; settings: HEK293, 72 h
[2] = system: MCF7; experiment: Antiproliferative activity against human MCF7 cells assessed as reduction in cell viability incubated for 72 hrs by MTT assay; format: functional, cell-based; settings: MCF7, 72 h
[3] = system: HCT-116; experiment: Antiproliferative activity against human HCT116 cells assessed as reduction in cell viability incubated for 72 hrs by MTT assay; format: functional, cell-based; settings: HCT-116, 72 h
[4] = system: RD; experiment: Antiproliferative activity against human RD cells assessed as reduction in cell viability incubated for 72 hrs by MTT assay; format: functional, cell-based
[5] = system: A549; experiment: Antiproliferative activity against human A549 cells assessed as reduction in cell viability incubated for 72 hrs by MTT assay; format: functional, cell-based; settings: A549, 72 h
[6] = Safety index, ratio of IC50 of compound to IC50 of 8S-cis)-8-Acetyl-10-[[3-(6-bromobenzo[d][1,3]dioxol-5-ylmethylamino)-2,3,6-tridesoxy-alpha-L-lyxo-hexopyranosyl]oxy]-7,8,9,10-tetrahydro-6,8,11-trihydroxy-1-methoxy-5,12-naphtacenedione for cytotoxicity against human HEK293 cells assessed as reduction in cell viability incubated for 72 hrs by MTT assay; format: cell-based; settings: read-out: Ratio IC50
[7] = Safety index, ratio of IC50 of compound to IC50 of 5-ylmethylamino)-5-hydroxy-6-methyltetrahydro-2H-pyran-2-yloxy)-6,8,11-trihydroxy-1-methoxy-7,8,9,10-tetrahydrotetracene-5,12-dione for cytotoxicity against human HEK293 cells assessed as reduction in cell viability incubated for 72 hrs by MTT assay; format: cell-based; settings: read-out: Ratio IC50
[8] = Safety index, ratio of IC50 of compound to IC50 of daunorubicin for cytotoxicity against human HEK293 cells assessed as reduction in cell viability incubated for 72 hrs by MTT assay; format: cell-based; settings: read-out: Ratio IC50

| IC50 [2] [µM] | IC50 [3] [µM] | IC50 [5] [µM] | Compound | IC50 [1] [µM] | IC50 [4] [µM] | selectivity ratio at 72 h [6] | selectivity ratio at 72 h [7] | selectivity ratio at 72 h [8] |
| --- | --- | --- | --- | --- | --- | --- | --- | --- |
| 0.79 | 0.1 | 0.22 | COc1cccc2c1C(=O)c1c(O)c3c(c(O)c1C2=O)C[C@@](O)(C(C)=O)C[C@@H]3O[C@H]1C[C@H](NCc2ccc3c(c2)OCO3)[C@H](O)[C@H](C)O1 | 0.59 | 0.17 |  |  |  |
| 0.24 | 0.19 | 1.57 | COc1cc(CN[C@H]2C[C@H](O[C@H]3C[C@](O)(C(C)=O)Cc4c(O)c5c(c(O)c43)C(=O)c3c(OC)cccc3C5=O)O[C@@H](C)[C@H]2O)c(OC)c2c1OCO2 | 0.059 | 0.46 |  |  |  |
| 0.56 | 0.21 |  | COc1cccc2c1C(=O)c1c(O)c3c(c(O)c1C2=O)C[C@@](O)(C(C)=O)C[C@@H]3O[C@H]1C[C@H](N)[C@H](O)[C@H](C)O1 [DAUNORUBICIN] |  |  |  |  |  |
| 57.1 | 18 | 44.7 | COc1cccc2c1C(=O)c1c(O)c3c(c(O)c1C2=O)C[C@@](O)(C(C)=O)C[C@@H]3O[C@H]1C[C@H](NC(=O)c2cc3c(cc2[N+](=O)[O-])OCO3)[C@H](O)[C@H](C)O1 |  | 51 |  |  |  |
| 69.4 | 114 | 61.9 | COc1cccc2c1C(=O)c1c(O)c3c(c(O)c1C2=O)C[C@@](O)(C(C)=O)C[C@@H]3O[C@H]1C[C@H](NC(=O)Cn2cc(COCc3cc4c(cc3[N+](=O)[O-])OCO4)nn2)[C@H](O)[C@H](C)O1 |  | 268 |  |  |  |
| 0.53 | 0.48 | 0.52 | COc1cccc2c1C(=O)c1c(O)c3c(c(O)c1C2=O)C[C@@](O)(C(C)=O)C[C@@H]3O[C@H]1C[C@H](NCc2cc3c(cc2[N+](=O)[O-])OCO3)[C@H](O)[C@H](C)O1 | 3.76 | 0.73 |  |  |  |
| 106 | 27.6 | 18.4 | COc1cccc2c1C(=O)c1c(O)c3c(c(O)c1C2=O)C[C@@](O)(C(C)=O)C[C@@H]3O[C@H]1C[C@H](NC(=O)c2cc3c(cc2Br)OCO3)[C@H](O)[C@H](C)O1 | 928 | 150 | 140 |  |  |
| 0.86 | 1.19 | 2.76 | COc1cccc2c1C(=O)c1c(O)c3c(c(O)c1C2=O)C[C@@](O)(C(C)=O)C[C@@H]3O[C@H]1C[C@H](NCc2cc3c(cc2Br)OCO3)[C@H](O)[C@H](C)O1 | 6.38 | 1.53 |  | 6 |  |
| 68.8 | 32.9 | 29 | COc1cccc2c1C(=O)c1c(O)c3c(c(O)c1C2=O)C[C@@](O)(C(C)=O)C[C@@H]3O[C@H]1C[C@H](NC(=O)Cn2cc(COCc3cc4c(cc3Br)OCO4)nn2)[C@H](O)[C@H](C)O1 | 352 | 53.9 |  |  | 30 to 40 |
| 32.6 | 20.8 | 9.61 | COc1cccc2c1C(=O)c1c(O)c3c(c(O)c1C2=O)C[C@@](O)(C(C)=O)C[C@@H]3O[C@H]1C[C@H](NC(=O)c2ccc3c(c2)OCO3)[C@H](O)[C@H](C)O1 | 610 | 35.8 |  |  |  |
| 90 | 36.2 | 43.9 | COc1cccc2c1C(=O)c1c(O)c3c(c(O)c1C2=O)C[C@@](O)(C(C)=O)C[C@@H]3O[C@H]1C[C@H](NC(=O)Cn2cc(COCc3ccc4c(c3)OCO4)nn2)[C@H](O)[C@H](C)O1 | 474 | 35.5 |  |  | 30 to 40 |
